Measured values reported in patent US20040249122A1, “Cationic, amphipathic beta-sheet peptides and uses thereof” (priority 2003, published 2004).
Converted amounts (≈) assume the structure as drawn. “Also recorded” adds a separate entry of the source. Read-outs that look alike come from different tables or passages of the source. Where a SMILES comes first, the peptide text is derived from it.

Key:
[1] = tested on: Candida albicans (ATCC 14053)
Method: (§1) Antimicrobial and Hemolytic Assays. Antimicrobial susceptibility testing against Staphylococcus aureus (ATCC 29213), Escherichia coli (ATCC 25922), and Pseudomonas aeruginosa (ATCC 27853) was performed using a modification of the National Committee for Clinical Laboratory Standards microdilution broth assay (22). Mueller-Hinton broth (BBL) was used for diluting the peptide stock solution and for diluting the bacterial inoculum. The inoculum was prepared from mid-logarithmic phase cultures. Microtiter plate wells received aliquots-of 100 μL each of the inoculum and peptide dilution. The final concentration of peptide solution ranged-from 0.25 to 256 μg/mL in two-fold dilutions. The final concentration of bacteria in the wells was 5×10^5 CFU/mL. Peptides were tested in duplicate. In addition to the test peptide, three standard peptides and a non-treated growth control were included to validate the assay. The microtiter plates were incubated overnight at 37° C. and the absorbance was measured at 600 nm. […] After incubation at 37° C. for 30 min, the suspension was centrifuged at 10,000×g for 10 min and the absorbance at 400 nm was measured. Complete hemolysis was determined by adding 0.2% Triton X-100 in place of the peptide.
Antimicrobial susceptibility testing against Escherichia coli (ATCC 25922), Staphylococcus aureus (ATCC 29213), Pseudomonas aeruginosa (ATCC 27853), and Candida albicans (ATCC 14053) is performed using a modification of the National Committee for Clinical Laboratory Standards microdilution broth assay. Mueller-Hinton broth (BBL) is used for diluting the peptide stock solution and for diluting the bacterial inoculum. The inoculum is prepared from midlogarithmic phase cultures at an approximate concentration of 10^6 CFU/mL. Microtiter plate wells receive aliquots of 0.1 mL each of the inoculum and peptide dilution. The final concentration of the peptide solution ranges from 0.25 to 256 μg/mL in 2-fold dilutions. The microtiter plates are incubated overnight at 37° C.

[2] = tested on: Pseudomonas aeruginosa (ATCC 27853); assay type: cell-based
Method: as §1, with “Microtiter plate wells received aliquots-of 100 μL each of the inoculum and peptide dilution.” left out, “measured.” for “measured. Complete hemolysis was determined by adding 0.2% Triton X-100 in place of the peptide.”

[3] = tested on: Staphylococcus aureus (ATCC 29213); assay type: cell-based
Method: as §1, with “Microtiter plate wells received aliquots-of 100 μL each of the inoculum and peptide dilution.” left out, “measured.” for “measured. Complete hemolysis was determined by adding 0.2% Triton X-100 in place of the peptide.”

[4] = tested on: Escherichia coli (ATCC 25922); assay type: cell-based
Method: as §1, with “Microtiter plate wells received aliquots-of 100 μL each of the inoculum and peptide dilution.” left out, “measured.” for “measured. Complete hemolysis was determined by adding 0.2% Triton X-100 in place of the peptide.”

[5] = Peptide-induced leakage from calcein-loaded LUV
Method: Peptide-Induced Leakage from Calcein-Loaded LUV. The ability of the peptides to release calcein (MW 623) from LUV of varying lipid composition was compared. LUV were prepared as above, except that-the buffer consisted of 50 mM HEPES, 100 mM NaCl, 0.3 mM EDTA, 80 mM calcein, pH 7.4. Calcein-loaded vesicles were separated from free calcein by size-exclusion chromatography using a Sephadex G-50 column and calcein-free buffer. Calcein leakage was monitored using a Perkin-Elmer LS-500 luminescence spectrometer by measuring the time-dependent increase in fluorescence of calcein (excitation=490 nm, emission=520 nm). LUV containing 8 nmoles of lipid were added to 1.5 mL of buffer in a stirred cuvet at 25° C. An aliquot of peptide was added to achieve the desired lipid-to-peptide ratio (256 to 8). Complete leakage was determined by the addition of 20 μL of 10% Triton X-100. Each value represents at least nine different measurements using at least three different LUV preparations.

[6] = tested on: human erythrocytes; assay: Hemolysis of human erythrocytes; assay type: cell-based
Method: as §1, with “Microtiter plate wells received aliquots-of 100 μL each of the inoculum and peptide dilution.” left out, “measured.” for “measured. Complete hemolysis was determined by adding 0.2% Triton X-100 in place of the peptide.”

| MIC Pseud. aerug ([2]; ATCC 27853) [µg/mL] | MIC Staph. aureus ([3]; ATCC 29213) [µg/mL] | MIC E. coli ([4]; ATCC 25922) [µg/mL] | Compound | Minimum Inhibitory Concentration, C. albicans ([1]; ATCC 14053) [µg/mL] | Minimum Inhibitory Concentration, P. aeruginosa ([2]; ATCC 27853) [µg/mL] | Minimum Inhibitory Concentration, S. aureus ([3]; ATCC 29213) [µg/mL] | Minimum Inhibitory Concentration, E. coli ([4]; ATCC 25922) [µg/mL] | calcein leakage from LUV (in words) ([5]; 4:1 POPE/POPG LUV) | calcein leakage from LUV (in words) ([5]; POPC (PC) LUV) | % Hemolysis (500 μg/mL) ([6]; red cells of human, 500) [%] | Minimum Inhibitory Concentration, C. albicans ([1]; Table 2) [µg/mL] | Minimum Inhibitory Concentration, P. aeruginosa ([2]; Table 2, overnight at 37° C.) [µg/mL] | MIC Pseud. aerug ([2]; Table 4) [µg/mL] | Minimum Inhibitory Concentration, S. aureus ([3]; Table 2, overnight at 37° C.) [µg/mL] | MIC Staph. aureus ([3]; Table 4) [µg/mL] | Minimum Inhibitory Concentration, E. coli ([4]; Table 2, overnight at 37° C.) [µg/mL] | MIC E. coli ([4]; Table 4) [µg/mL] | calcein leakage from LUV (in words) ([5]; POPC/POPG LUV, all ratios (1:1 to 4:1)) | % Hemolysis (500 μg/mL) ([6]; 500 μg/mL peptide, 5% human erythrocytes, 37° C., 30 min) [%] |
| --- | --- | --- | --- | --- | --- | --- | --- | --- | --- | --- | --- | --- | --- | --- | --- | --- | --- | --- | --- |
| 32 (≈ 15.5 µM) | 8 (≈ 3.88 µM) | 8 (≈ 3.88 µM) | CC[C@H](C)[C@H](NC(=O)[C@H](CCCCN)NC(=O)CNC(=O)[C@H](C)NC(=O)[C@@H](NC(=O)[C@H](CCCCN)NC(=O)[C@H](C)NC(=O)[C@@H](NC(=O)[C@H](CCCCN)NC(=O)CNC(=O)[C@H](C)NC(=O)[C@@H](NC(=O)[C@H](CCCCN)NC(=O)[C@H](C)NC(=O)[C@@H](NC(=O)[C@H](CCCCN)NC(=O)CNC(=O)[C@H](C)NC(=O)[C@@H](NC(=O)[C@@H](N)CCCCN)[C@@H](C)CC)[C@@H](C)CC)[C@@H](C)CC)[C@@H](C)CC)[C@@H](C)CC)C(=O)N[C@@H](C)C(N)=O [(KIAGKIA)3-NH2, KIAGKIAKIAGKIAKIAGKIA -NH2, reference compound] (H-KIAGKIAKIAGKIAKIAGKIA-NH2; N-terminus assumed) | 64 | 32 | 8 | 8 | most potent | not very effective | 9 |  |  |  |  |  |  |  |  |  |
|  |  |  | CC[C@H](C)[C@H](NC(=O)[C@H](CCCCN)NC(=O)[C@H](C)NC(=O)CNC(=O)[C@@H](NC(=O)[C@H](CCCCN)NC(=O)[C@@H](NC(=O)[C@H](CCCCN)NC(=O)[C@H](C)NC(=O)CNC(=O)[C@@H](NC(=O)[C@H](CCCCN)NC(=O)[C@@H](NC(=O)[C@H](CCCCN)NC(=O)[C@H](C)NC(=O)CNC(=O)[C@@H](NC(=O)[C@@H](N)CCCCN)[C@@H](C)CC)[C@@H](C)CC)[C@@H](C)CC)[C@@H](C)CC)[C@@H](C)CC)C(N)=O [(KIGAKI)3-NH2, K I G A K I K I G A K I K I G A K I -NH2] (H-KIGAKIKIGAKIKIGAKI-NH2) |  |  |  |  | most potent | not very effective; also recorded: low lytic activity |  | 64 | 32 | 32 (≈ 17.3 µM) | 16 | 8 (≈ 4.33 µM) | 8 | 8 (≈ 4.33 µM) | least potent | 3 |
|  |  |  | CC(C)C[C@H](NC(=O)CNC(=O)[C@H](C)NC(=O)[C@H](CC(C)C)NC(=O)[C@H](CCCCN)NC(=O)[C@H](CCCCN)NC(=O)[C@H](C)NC(=O)[C@H](CC(C)C)NC(=O)CNC(=O)[C@H](C)NC(=O)[C@H](CC(C)C)NC(=O)[C@H](CCCCN)NC(=O)[C@H](CCCCN)NC(=O)[C@H](C)NC(=O)[C@H](CC(C)C)NC(=O)CNC(=O)[C@H](C)NC(=O)[C@H](CC(C)C)NC(=O)[C@@H](N)CCCCN)C(=O)N[C@@H](C)C(=O)N[C@@H](CCCCN)C(N)=O [(KLAGLAK)3-NH2, KLAGLAKKLAGLAKKLAGLAK -NH2] (H-KLAGLAKKLAGLAKKLAGLAK-NH2) | 64 | 128 | 16 | 8 |  |  | 9 |  |  |  |  |  |  |  |  |  |
|  |  |  | CC[C@H](C)[C@H](NC(=O)CN)C(=O)NCC(=O)N[C@@H](CCCCN)C(=O)N[C@@H](Cc1ccccc1)C(=O)N[C@@H](CC(C)C)C(=O)N[C@@H](Cc1c[nH]cn1)C(=O)N[C@@H](CO)C(=O)N[C@@H](C)C(=O)N[C@@H](CCCCN)C(=O)N[C@@H](CCCCN)C(=O)N[C@@H](Cc1ccccc1)C(=O)NCC(=O)N[C@@H](CCCCN)C(=O)N[C@@H](C)C(=O)N[C@@H](Cc1ccccc1)C(=O)N[C@H](C(=O)NCC(=O)N[C@@H](C)C(=O)N[C@H](C(=O)N[C@@H](CCSC)C(=O)N[C@@H](CC(N)=O)C(=O)N[C@@H](CO)C(N)=O)[C@@H](C)CC)C(C)C [A19-Magainin 2-NH2, reference compound] (H-GIGKFLHSAKKFGKAFVGAIMNS-NH2) | 128 | 16 | 64 | 8 |  |  | 29 |  |  |  |  |  |  |  |  |  |
|  |  |  | CC[C@H](C)[C@H](NC(=O)CN)C(=O)NCC(=O)N[C@@H](CCCCN)C(=O)N[C@@H](Cc1ccccc1)C(=O)N[C@@H](CC(C)C)C(=O)N[C@@H](CCCCN)C(=O)N[C@@H](CCCCN)C(=O)N[C@@H](C)C(=O)N[C@@H](CCCCN)C(=O)N[C@@H](CCCCN)C(=O)N[C@@H](Cc1ccccc1)C(=O)NCC(=O)N[C@@H](CCCCN)C(=O)N[C@@H](C)C(=O)N[C@@H](Cc1ccccc1)C(=O)N[C@H](C(=O)N[C@@H](CCCCN)C(=O)N[C@H](C(=O)N[C@@H](CC(C)C)C(=O)N[C@@H](CCCCN)C(=O)N[C@@H](CCCCN)C(N)=O)[C@@H](C)CC)C(C)C [MSI-78, reference compound] (H-GIGKFLKKAKKFGKAFVKILKK-NH2) | 64 | 4 | 8 | 8 |  |  | 9 |  |  |  |  |  |  |  |  |  |
|  |  |  | CC[C@H](C)[C@H](NC(=O)CN)C(=O)NCC(=O)N[C@@H](CCCCN)C(=O)N[C@@H](Cc1ccccc1)C(=O)N[C@@H](CC(C)C)C(=O)N[C@@H](Cc1c[nH]cn1)C(=O)N[C@@H](CO)C(=O)N[C@@H](C)C(=O)N[C@@H](CCCCN)C(=O)N[C@@H](CCCCN)C(=O)N[C@@H](Cc1ccccc1)C(=O)NCC(=O)N[C@@H](CCCCN)C(=O)N[C@@H](C)C(=O)N[C@@H](Cc1ccccc1)C(=O)N[C@H](C(=O)NCC(=O)N[C@@H](CCC(=O)O)C(=O)N[C@H](C(=O)N[C@@H](CCSC)C(=O)N[C@@H](CC(N)=O)C(=O)N[C@@H](CO)C(N)=O)[C@@H](C)CC)C(C)C [Magainin 2-NH2, GIGKFLHSAKKFGKAFVGEIMNS -NH2, reference compound] (H-GIGKFLHSAKKFGKAFVGEIMNS-NH2) | >256 | 256 | 256 | 64 |  |  | 2 |  |  |  |  |  |  |  |  |  |
